For orientation: MIC means the least concentration at which growth counts as inhibited. High values mean a less susceptible organism, low ones a more susceptible organism.

Converted amounts (≈) assume the structure as drawn.

In series [1] the test system is S. pyogenes 02C0203. Description: AUC/MIC ratios required for efficacy (PK-PD). Conditions: free AUC required for efficacy against S. pyogenes 02C0203 in mice. The class given is in vivo. As to the method:
(§1) In this example, the plasma concentrations of selected compounds were determined in mice that were infected with S. pyogenes 02C0203 at an oral dose of 100 mg/kg^4. Plasma samples were assayed for selected compounds using LC/MS/MS with multiple reaction monitoring. Free fractions were measured using equilibrium dialysis^5.
(§2) Separate groups of immunosuppressed mice were infected as above and orally dosed 2 hours post-infection with 100 mg/kg of the selected compounds. Thigh tissue samples (10% in PBS) and plasma were collected at 0.5, 1, 2, 4, 8 and 24 hours post-dose (n=3) for quantitation of drug levels. Bacterial burden was quantitated in the thigh tissue samples from treated mice and from infected, untreated mice at each timepoint.

Series [2] relates to S. pyogenes 02C0203. Description: In vitro MIC testing by microbroth dilution. The class given is cell-based, Streptococcus pyogenes. Conditions: for antibacterial activity (in words): S. pyogenes 02C0203; for MIC: Streptococcus pyogenes, 02C0203, microbroth dilution, 35° C., 16 to 24 hours. As to the method:
Except for clarifying or modifying statements, MIC testing followed procedures recommended by the NCCLS^1-2 or followed the descriptions cited below.
At least the following organisms are included in the screen: S. pyogenes 02C0203. Incubations were at 35° C. Stock bacterial cultures were maintained on Tryptic Soy Agar containing 5% Sheep Blood (BD, Becton Dickinson Microbiology Systems, Cockeysville, Md.), anaerobes were maintained on Anaerobic Blood Agar plates—CDC Formulation (BD), and fastidious organisms were maintained on Chocolate Agar II Plates (BD). Specific conditions of handling are listed below.
Frozen stock cultures were used as the initial source of organisms for performing microbroth dilution MIC testing. Stock cultures were passed on their standard growth medium for at least 1 growth cycle (18 to 24 hours) prior to their use.
Most bacteria, unless otherwise noted, were prepared directly from agar plates in 10 mL aliquots of the appropriate broth medium. Bacterial cultures were adjusted to the opacity of a 0.5 McFarland Standard (optical density value of 0.28-0.33 on a Perkin-Elmer Lambda EZ150 Spectrophotometer Wellesley, Mass., set at a wavelength of 600 nm). The adjusted cultures were diluted 400 fold (0.25 mL inoculum+100 mL broth) in growth media to produce a starting suspension of approximately 5×10^5 colony forming units (CFU)/mL. Unless otherwise noted, bacterial strains were tested in cation adjusted Mueller Hinton Broth (CAMHB).
Compounds were solubilized in DMSO. Drug stock solutions were prepared on the day of testing. Drugs were weight corrected for assay content where necessary.
Microbroth dilution stock plates were prepared in two dilution series, 64 to 0.06 μg drug/mL and 0.25 to 0.00025 μg drug/mL. For the high concentration series, 200 μL of stock solution ([…]) was added to duplicate rows of a 96-well microtiter plate. This was used as the first well in the dilution series. Serial two-fold decremental dilutions were made using a BioMek FX robot (Beckman Coulter Inc., Fullerton, Calif.) with 10 of the remaining 11 wells, each of which contained 100 μL of the appropriate solvent/diluent. Row 12 contained solvent/diluent only and served as the control. For tube one of the low concentration series, 200 µL of an 8 μg/mL stock was added to duplicate rows of a 96-well plate. Serial two-fold dilutions were made as described above.
Daughter plates were spotted (3.2 μL/well) from the stock plates listed above using the BioMek FX robot and were either used immediately or frozen at −70° C. until use.
Aerobic organisms were inoculated (100 μL volumes) into the thawed plates using the BioMek FX robot. The inoculated plates were placed in stacks of no more than 5 and covered with an empty plate. These plates were incubated 16 to 24 hours in ambient atmosphere according to CLSI guidelines^2.
After inoculation and incubation, the degree of bacterial growth was estimated visually with the aid of a Test Reading Mirror (Dynex Technologies 220 16) in a darkened room with a single light shining directly through the top of the microbroth tray. The MIC was the lowest concentration of drug that prevented macroscopically visible growth under the conditions of the test. Testing was performed in duplicate. When the MIC values in duplicate tests varied by 1 well (2-fold), the […] values were reported. If the MICs varied by 2 dilutions, the middle value was reported. […]

The nature of series [3]: Plasma concentrations in infected mice after an oral dose (LC/MS/MS). The class given is in vivo. Conditions: for concentration at 0.5 h / concentration at 1 h / concentration at 2 h / concentration at 4 h / concentration at 8 h / concentration at 24 h: CF-1, mouse, plasma, infected mice (n = 3), oral 100 mg/kg; for oral exposure (in words): mice infected with S. pyogenes 02C0203, 100 mg/kg. As to the method:
as §1, §2

The test system of series [4] is S. pyogenes 02C0203. Description: Neutropenic soft tissue (thigh abscess) infection model. The class given is in vivo, CF-1 female mice. As to conditions: thigh tissue 24 hours post-dose. As to the method: In this example, the in vivo antibacterial efficacy of selected compounds was determined in a neutropenic soft tissue infection model in CF-1 female mice challenged with Streptococcus pyogenes 02C0203. With the exception of modifications discussed here, the murine soft tissue infection model was previously described by Craig et al. (6, 7, 8).
CF-1 female mice were immunosuppressed with oral doses of cyclophosphamide in sterile water on Day-4 (150 mg/kg) and Day-1 (100 mg/kg). Mice were infected intramuscularly (thigh muscle) with 7×10^5 cfu of S. pyogenes 02C0203 in 0.1 ml brain heart infusion broth on Day 0. Two hours post-infection, mice received a single oral dose of selected compounds. The compounds were administered orally from a spray dried dispersion (SDD) in 0.5% (wt/v) methylcellulose (MC), 0.5% (wt/v) hydroxypropyl methylcellulose acetate succinate medium, fine powder (HPMCAS-MF) in 20 mM Tris buffer (pH 7.4). Thigh tissue was collected 24 hours post-dose. Serial ten-fold dilutions of tissue homogenates prepared in sterile phosphate buffered saline were plated on 5% sheep blood agar plates for enumeration of bacterial burden.
as §2

With `CCc1coc(-c2cc3c(c(F)c2F)N2C[C@H](C)O[C@H](C)[C@H]2C2(C3)C(=O)NC(=O)NC2=O)n1` (racemic) [Example 9, (2S,4R,4aR)-8-(4-ethyloxazol-2-yl)-9,10-difluoro-2,4-dimethyl-2,4,4a,6-tetrahydro-1H,1′H-spiro[[1,4]oxazino[4,3-a]quinoline-5,5′-pyrimidine]-2′,4′,6′(3′H)-trione], the “Target fAUC” value in the series on S. pyogenes 02C0203 [1] was 4000 ng·h/mL. For the same compound, in the series with S. pyogenes 02C0203 [2], the “antibacterial activity (in words)” value is “antibacterial activity” and inhibition of growth (MIC) required 1 µg/mL (≈ 2.17 µM). Moreover, in series [3], the concentration at 0.5 h is 19400 ng/mL, the concentration at 1 h was 19000 ng/mL, the concentration at 2 h turned out to be 23000 ng/mL and the concentration at 4 h was found to be 22900 ng/mL. Also, in series [3], the concentration at 8 h was determined as 18100 ng/mL, the concentration at 24 h was 2180 ng/mL and the “oral exposure (in words)” value is recorded as “demonstrated oral exposure”.

Take `Cc1coc(-c2cc(F)c3c(c2)CC2(C(=O)NC(=O)NC2=O)[C@H]2[C@H](C)O[C@H](C)CN32)n1` (single isomer, unassigned) [Example 1]: the “Target fAUC” value in the series with S. pyogenes 02C0203 [1] came out at 2000 ng·h/mL. Besides, in the series on S. pyogenes 02C0203 [2], the “antibacterial activity (in words)” value is given as “antibacterial activity” and the lowest concentration to inhibit growth (MIC) was 1 µg/mL (≈ 2.33 µM). In series [3], this compound yielded a concentration at 0.5 h of 13500 ng/mL, a concentration at 1 h of 13300 ng/mL, a concentration at 2 h of 21500 ng/mL and a concentration at 4 h of 24500 ng/mL. In series [3], the concentration at 8 h came out at 7450 ng/mL, the concentration at 24 h is 176 ng/mL and the “oral exposure (in words)” value was “demonstrated oral exposure”. In the series on S. pyogenes 02C0203 [4] (single oral dose 12.5 mg/kg), the “Log10 geometric mean recoverable cfu” value turned out to be 6.17 and the “Mean log10 cfu reduction vs. infected controls” value worked out at 0.53. In the series on S. pyogenes 02C0203 [4] (single oral dose 25 mg/kg), the “Log10 geometric mean recoverable cfu” value was found to be 5.45 and the “Mean log10 cfu reduction vs. infected controls” value stood at 1.25. Further, in the series on S. pyogenes 02C0203 [4] (single oral dose 50 mg/kg), the “Log10 geometric mean recoverable cfu” value came to 4.60 and the “Mean log10 cfu reduction vs. infected controls” value is given as 2.10. Moreover, in the series with S. pyogenes 02C0203 [4] (single oral dose 100 mg/kg), the “Log10 geometric mean recoverable cfu” value was 3.49 and the “Mean log10 cfu reduction vs. infected controls” value stood at 3.21. In the series on S. pyogenes 02C0203 [4] (single oral dose 200 mg/kg), the “Log10 geometric mean recoverable cfu” value stood at 2.85 and the “Mean log10 cfu reduction vs. infected controls” value turned out to be 3.85.

`Cc1cc(-c2cc3c(c(F)c2F)N2C[C@@H](C)O[C@@H](C)[C@@H]2C2(C3)C(=O)NC(=O)NC2=O)on1` (single isomer, unassigned) [Example 2]: the “Log10 geometric mean recoverable cfu” value in the series with S. pyogenes 02C0203 [4] (single oral dose 12.5 mg/kg) was found to be 6.23; with S. pyogenes 02C0203 [4] (single oral dose 25 mg/kg), 5.76; with S. pyogenes 02C0203 [4] (single oral dose 50 mg/kg), 5.07; with S. pyogenes 02C0203 [4] (single oral dose 100 mg/kg), 2.11; in the series with S. pyogenes 02C0203 [4] (single oral dose 200 mg/kg), 1.92. The “Mean log10 cfu reduction vs. infected controls” value in the series with S. pyogenes 02C0203 [4] (single oral dose 12.5 mg/kg) is listed as 0.47; in the series with S. pyogenes 02C0203 [4] (single oral dose 25 mg/kg), 0.94; in the series on S. pyogenes 02C0203 [4] (single oral dose 50 mg/kg), 1.63; with S. pyogenes 02C0203 [4] (single oral dose 100 mg/kg), 4.59; with S. pyogenes 02C0203 [4] (single oral dose 200 mg/kg) it was 4.78.

In the series with S. pyogenes 02C0203 [2], `Cc1ncc(-c2cc3c(cc2F)N2C[C@@H](C)O[C@@H](C)[C@@H]2C2(C3)C(=O)NC(=O)NC2=O)cn1` [Comparator Compound from the Literature, reference compound] showed an MIC of 2 µg/mL (≈ 4.55 µM). Besides, in series [3], the concentration at 0.5 h came to 11100 ng/mL, the concentration at 1 h stood at 17100 ng/mL, the concentration at 2 h was 16000 ng/mL and the concentration at 4 h is 8530 ng/mL. In series [3], the concentration at 8 h stood at 3700 ng/mL and the concentration at 24 h was 1400 ng/mL. In addition, in the series on S. pyogenes 02C0203 [4] (single oral dose 12.5 mg/kg), the “Log10 geometric mean recoverable cfu” value is 6.48 and the “Mean log10 cfu reduction vs. infected controls” value was −0.11. Also, in the series with S. pyogenes 02C0203 [4] (single oral dose 25 mg/kg), the “Log10 geometric mean recoverable cfu” value came out at 6.52 and the “Mean log10 cfu reduction vs. infected controls” value is given as −0.07. In the series with S. pyogenes 02C0203 [4] (single oral dose 50 mg/kg), the “Log10 geometric mean recoverable cfu” value was found to be 6.48 and the “Mean log10 cfu reduction vs. infected controls” value is given as −0.11. In addition, in the series on S. pyogenes 02C0203 [4] (single oral dose 100 mg/kg), the “Log10 geometric mean recoverable cfu” value was 4.62 and the “Mean log10 cfu reduction vs. infected controls” value is on record as −1.97. Also, in the series with S. pyogenes 02C0203 [4] (single oral dose 200 mg/kg), the “Log10 geometric mean recoverable cfu” value amounted to 4.32 and the “Mean log10 cfu reduction vs. infected controls” value is −2.27.

Values taken from patent publication US8952149B2, “Tricyclic tetrahydroquinoline antibacterial agents” (Zoetis LLC, priority 2012, dated 2015).
